Results on 16 molecules are retold here after patent US4005103A, “Pyrrolidine derivatives” (priority 1973, dated 1977).

Counter-ions that a name gives are not always drawn. Like-named read-outs stand apart in the source and are kept apart here.

The nature of test [1]: Potentiation of amphetamine: stereotypies in rats after d-amphetamine sulphate. To be noted: 30 min before 5 mg/kg d-amphetamine sulphate i.p., over 3 hours, maximum 24. It is filed as in vivo. As for the experimental part: 1. POTENTIATION OF AMPHETAMINE
The test compound is administered intraperitoneally to rats 30 minutes before the intraperitoneal injection of 5 mg/kg of d-amphetamine sulphate. The intensity of the stereotypies over a period of 3 hours is assessed by attributing a number from 0 to 4. Table I indicates the sum of the assessments as a function of the doses administered. The maximum assessment is 24.

The nature of test [2]: Anorexigenic activity in dogs. It is filed as in vivo, Beagle dogs. To be noted: Canis lupus familiaris, read-out: percentage inhibition of consuming food. Here is the method:
2. ANOREXIGENIC ACTIVITY IN DOGS
Beagle dogs are conditioned to take their food over the course of 5 minutes once per day. The test compound is administered orally in the form of a single dose of 10 mg/kg one hour before the food is presented. The amount of food ingested is measured at regular intervals.
Table II gives the percentage inhibition of consuming food as a function of the time after treatment.

The mark [3] stands for this setting: Beagle dogs, 10 mg/kg oral, 1 hr after treatment.
Where [4] appears, read: Beagle dogs, 10 mg/kg oral, 2 hrs after treatment.
Setting [5] is: Beagle dogs, 10 mg/kg oral, 4 hrs after treatment.
Setting [6] is: Beagle dogs, 10 mg/kg oral, 24 hrs after treatment.

As for `CC1(C)NC(C2CC2)CC1c1ccccc1.Cl` (stereo not shown) [Example XXI, 2-cyclopropyl-4-phenyl-5,5-dimethylpyrrolidine hydrochloride], the “sum of the assessments of intensity of stereotypies” value (from here on “sum”) came out at 10 in test [1] (4 mg/kg intraperitoneal), 11 in test [1] (8 mg/kg intraperitoneal) and 13 in test [1] (16 mg/kg intraperitoneal). Besides, the inhibition in vivo at 10 mg/kg in test [2] (po, 1 h) was determined as 100%; in test [2] (po, 2 h), 100%; in test [2] (po, 4 h) it was 70%; in test [2] (po, 24 h), 0%.
As for `CC1NC(C2CC2)CC1c1ccccc1.Cl` (stereo not shown) [Example XXII, 2-cyclopropyl-4-phenyl-5-methyl-pyrrolidine hydrochloride], the “sum” value in test [1] (1 mg/kg intraperitoneal) stood at 8; in test [1] (4 mg/kg intraperitoneal), 9; in test [1] (16 mg/kg intraperitoneal), 12. The inhibition in vivo at 10 mg/kg turned out to be 50% in test [2] (po, 1 h); 50% in test [2] (po, 2 h); 0% in test [2] (po, 4 h).
For `CC1(C)NC(C2CC2)CC1c1ccc(Cl)cc1.Cl` (stereo not shown) [Example XXIII, 2-cyclopropyl-4-(p-chlorophenyl)-5,5-dimethyl-pyrrolidine hydrochloride], the entries for the “sum” value in test [1] (2 mg/kg intraperitoneal), in test [1] (8 mg/kg intraperitoneal) and in test [1] (32 mg/kg intraperitoneal) were 12, 18 and 17, respectively. Besides, the inhibition in vivo at 10 mg/kg in test [2] (setting [3]) turned out to be 100%; in test [2] (setting [4]), 100%; in test [2] (setting [5]) it was 100%; in test [2] (setting [6]), 50%.
Take `CC1(C)NC(C2CC2)CC1c1cccc(C(F)(F)F)c1.Cl` (stereo not shown) [Example XXX, 2-cyclopropyl-4-(m-trifluoromethylphenyl)-5,5-dimethylpyrrolidine hydrochl oride]: the “sum” value in test [1] (1 mg/kg intraperitoneal) is 20; in test [1] (4 mg/kg intraperitoneal) it was 24; in test [1] (16 mg/kg intraperitoneal) it was 24. The inhibition in vivo at 10 mg/kg in test [2] (setting [3]) and in test [2] (setting [4]) was 0% each time.
For `C#CCN1C(C)C(c2ccc(Cl)c(Cl)c2)CC1C1CC1.Cl` (stereo not shown) [Example XXXV, N-propargyl-2-cyclopropyl-4-(3',4'-dichlorophenyl)-5-methylpyrrolidine hydrochloride], the “sum” value is 18 in test [1] (1 mg/kg intraperitoneal), 23 in test [1] (4 mg/kg intraperitoneal) and 23 in test [1] (16 mg/kg intraperitoneal). The inhibition in vivo at 10 mg/kg in test [2] (po, 1 h) was 60%; in test [2] (po, 2 h) it was 60%; in test [2] (po, 4 h) it was 60%; in test [2] (po, 24 h), 0%.
In the case of `CC1NC(C2CC2)CC1c1cccc(C(F)(F)F)c1.Cl` (stereo not shown) [XXIX, 2-cyclopropyl-4-(m-trifluoromethylphenyl)-5-methyl-pyrrolidine hydrochloride], the “sum” value in test [1] (1 mg/kg intraperitoneal) stood at 17; in test [1] (4 mg/kg intraperitoneal), 22; in test [1] (16 mg/kg intraperitoneal), 16. The inhibition in vivo at 10 mg/kg in test [2] (setting [3]) and in test [2] (setting [4]) was 0% each time.
As for `CC1NC(C2CC2)CC1c1cccc(Cl)c1.Cl` (stereo not shown) [XXV, 2-cyclopropyl-4-(m-chlorophenyl)-5-methylpyrrolidine hydrochloride], the “sum” value is 13 in test [1] (0.5 mg/kg intraperitoneal), 18 in test [1] (2 mg/kg intraperitoneal) and 23 in test [1] (8 mg/kg intraperitoneal). Also, the inhibition in vivo at 10 mg/kg in test [2] (setting [3]) came to 50%; in test [2] (setting [4]), 50%; in test [2] (setting [5]), 50%; in test [2] (setting [6]), 0%.
With `CC1(C)NC(C2CC2)CC1c1cccc(Cl)c1.Cl` (stereo not shown) [XXVI, 2-cyclopropyl-4-(m-chlorophenyl)-5,5-dimethylpyrrolidine hydrochloride], the “sum” value was determined as 12 in test [1] (1 mg/kg intraperitoneal), 14 in test [1] (4 mg/kg intraperitoneal) and 19 in test [1] (16 mg/kg intraperitoneal). Also, the inhibition in vivo at 10 mg/kg was 60% in test [2] (setting [3]), 60% in test [2] (setting [4]), 60% in test [2] (setting [5]) and 0% in test [2] (setting [6]).
With `CC1(C)NC(C2CC2)CC1c1cccc(F)c1.Cl` (stereo not shown) [XXVIII, 2-cyclopropyl-4-(m-fluorophenyl)-5,5-dimethylpyrrolidine hydrochloride], the “sum” value in test [1] (1 mg/kg intraperitoneal) came out at 16; in test [1] (4 mg/kg intraperitoneal), 17; in test [1] (16 mg/kg intraperitoneal), 16. For the same molecule, the inhibition in vivo at 10 mg/kg is 100% in test [2] (setting [3]), 100% in test [2] (setting [4]), 100% in test [2] (setting [5]) and 0% in test [2] (setting [6]).
As for `COc1ccc(C2CC(C3CC3)NC2C)cc1OC.Cl` (stereo not shown) [XXXI, 2-cyclopropyl-4-(3',4'-dimethoxyphenyl)-5-methylpyrrolidine hydrochloride], the “sum” value in test [1] (2 mg/kg intraperitoneal) was 10; in test [1] (8 mg/kg intraperitoneal), 24; in test [1] (32 mg/kg intraperitoneal), 23. Also, the inhibition in vivo at 10 mg/kg in test [2] (setting [3]) and in test [2] (setting [4]) was 0% throughout.
For the molecule `CC1(C)NC(C2CC2)CC1c1ccc2c(c1)OCO2` (stereo not shown) [XXXII, 2-cyclopropyl-4-(3',4'-methylenedioxyphenyl)-5,5-dimethylpyrrolidine hydrochloride], the “sum” value is listed as 18 in test [1] (2 mg/kg intraperitoneal), 24 in test [1] (8 mg/kg intraperitoneal) and 23 in test [1] (32 mg/kg intraperitoneal). The inhibition in vivo at 10 mg/kg worked out at 100% in test [2] (po, 1 h); 100% in test [2] (po, 2 h); 100% in test [2] (po, 4 h); 0% in test [2] (po, 24 h).
`Cc1ccc(C2CC(C3CC3)NC2C)cc1.Cl` (stereo not shown) [XXXIII, 2-cyclopropyl-4-(p-methylphenyl)-5-methyl-pyrrolidine hydrochloride]: the results for the “sum” value in test [1] (2 mg/kg intraperitoneal), in test [1] (8 mg/kg intraperitoneal) and in test [1] (32 mg/kg intraperitoneal) were 12, 19 and 24, respectively. For the same molecule, the inhibition in vivo at 10 mg/kg in test [2] (po, 1 h) is 0%; in test [2] (po, 2 h) it was 0%.
Consider `CC1C(c2ccc(Cl)c(Cl)c2)CC(C2CC2)N1Cc1ccccc1.Cl` (stereo not shown) [XXXIV, N-benzyl-2-cyclopropyl-4-(3',4'-dichlorophenyl)-5-methylpyrrolidine hydrochloride], for which the “sum” value is given as 20 in test [1] (2 mg/kg intraperitoneal), 21 in test [1] (8 mg/kg intraperitoneal) and 15 in test [1] (32 mg/kg intraperitoneal). Further, the inhibition in vivo at 10 mg/kg in test [2] (setting [3]) was found to be 100%; in test [2] (setting [4]), 100%; in test [2] (setting [5]) it was 100%; in test [2] (setting [6]), 50%; in test [2] (Beagle dogs, 10 mg/kg oral, 48 hrs after treatment), 0%.
For the molecule `C#CCN1C(C)C(c2ccc(Cl)cc2)CC1C1CC1.Cl` (stereo not shown) [XXXVI, N-propargyl-2-cyclopropyl-4-(p-chlorophenyl)-5-methylpyrrolidine hydrochloride], the “sum” value in test [1] (8 mg/kg intraperitoneal) and in test [1] (32 mg/kg intraperitoneal) was 24 in each case. Besides, the inhibition in vivo at 10 mg/kg worked out at 0% in test [2] (po, 1 h) and 0% in test [2] (po, 2 h).
On to `CC1C(c2ccc(Cl)cc2)CC(C2CC2)N1CCO.Cl` (stereo not shown) [XXXVII, N-hydroxyethyl-2-cyclopropyl-4-(p-chlorophenyl)-5-methylpyrrolidine hydrochloride], for which the “sum” value in test [1] (2 mg/kg intraperitoneal) is listed as 12; in test [1] (16 mg/kg intraperitoneal) it was 24; in test [1] (32 mg/kg intraperitoneal), 24. In addition, the inhibition in vivo at 10 mg/kg in test [2] (setting [3]) and in test [2] (setting [4]) was 0% throughout.
In the case of `CCN1C(C)C(c2cccc(C(F)(F)F)c2)CC1C1CC1` (stereo not shown) [XXXVIII, N-ethyl-2-cyclopropyl-4-(m-trifluoromethylphenyl)-5-methylpyrrolidine], the “sum” value in test [1] (1 mg/kg intraperitoneal) came out at 20; in test [1] (4 mg/kg intraperitoneal) it was 24; in test [1] (8 mg/kg intraperitoneal), 24. The inhibition in vivo at 10 mg/kg in test [2] (po, 1 h) worked out at 0%; in test [2] (po, 2 h) it was 0%.
